Calls of active or inactive are those of the source. The calls are words filed in the database; no cut-off is given here.

This note sets out measurements from ChEMBL document CHEMBL3817761, “Chenopodium album metabolites act as dual topoisomerase inhibitors and induce apoptosis in the MCF7 cell line” (Medchemcomm, 2016).

In test [1] the test system is MCF7. In words: Induction of mitochondrial membrane depolarization in human MCF7 cells assessed as ratio of red to green fluorescence at 8.27 uM after 48 hrs by JC-1 staining based FACS assay (reference value: 9.1). It is filed as functional. For orientation: A flow cytometer gives signals particle by particle.
Test [2] relates to MCF7. The test is described as follows: Cell cycle arrest in human MCF7 cells assessed as accumulation at G0/G1 phase at 8.27 uM after 24 hrs by propidium iodide staining based flow cytometry (reference value: 50.3 %). The test is classed as functional.
The test system of test [3] is MCF7. In words: Induction of apoptosis in human MCF7 cells assessed as late apoptotic cells at 8.27 uM after 48 hrs by Annexin-V-FITC/propidium iodide staining based flow cytometry relative to control. It is filed as functional.
The subject of test [4] is MCF7. The test is described as follows: Induction of mitochondrial membrane depolarization in human MCF7 cells at 8.27 uM after 48 hrs by JC-1 staining based FACS assay (reference value: 9.9 %). It is filed as functional.
Test [5] concerns MCF7. The test is described as follows: Induction of apoptosis in human MCF7 cells assessed as rounded cells at 8.27 uM after 24 hrs by inverted phase contrast microscopy. It is filed as functional, cell-based.
Test [6] deals with MCF7. The test is described as follows: Induction of apoptosis in human MCF7 cells assessed as viable cells at 8.27 uM after 24 hrs by Annexin-V-FITC/propidium iodide staining based flow cytometry (reference value: 95.9 %). The following applies: MCF7, 24 h, read-out: Activity. The test is classed as functional.
Test [7] relates to MCF7. The test is described as follows: Induction of apoptosis in human MCF7 cells assessed as caspase 9 cleavage at 8.27 uM after 48 hrs by Western blot analysis. It is filed as functional, cell-based. On the technique in general: Immunoblotting shows a protein as a band on a membrane.
The test system of test [8] is MCF7. The test is described as follows: Induction of mitochondrial membrane depolarization in human MCF7 cells at 8.27 uM by JC-1 staining based FACS assay. It is filed as functional, cell-based. The following applies: TDE = time-dependent effect.
The subject of test [9] is MCF7. In words: Induction of ROS accumulation in human MCF7 cells at 8.27 uM after 24 hrs by CM-H2-DCFDA probe based flow cytometry (reference value: 12.6 %). It is filed as functional.
Test [10] deals with MCF7. In words: Induction of apoptosis in human MCF7 cells assessed as early apoptotic cells at 8.27 uM after 48 hrs by Annexin-V-FITC/propidium iodide staining based flow cytometry (reference value: 0.4 %). The test is classed as functional.
Test [11] deals with MCF7. The test is described as follows: Induction of mitochondrial membrane depolarization in human MCF7 cells at 8.27 uM after 24 hrs by JC-1 staining based FACS assay (reference value: 9.9 %). It is filed as functional.
The subject of test [12] is MCF7. The test is described as follows: Induction of apoptosis in human MCF7 cells assessed as necrotic cells at 8.27 uM after 24 hrs by Annexin-V-FITC/propidium iodide staining based flow cytometry (reference value: 1.7 %). It is filed as functional.
Test [13] deals with MCF7. In words: Cell cycle arrest in human MCF7 cells assessed as accumulation at G2/M phase at 8.27 uM after 48 hrs by propidium iodide staining based flow cytometry (reference value: 19.8 %). It is filed as functional.
The test system of test [14] is MCF7. In words: Induction of apoptosis in human MCF7 cells assessed as cell detachment at 8.27 uM after 24 hrs by inverted phase contrast microscopy. It is filed as functional, cell-based.
Test [15] deals with MCF7. In words: Induction of apoptosis in human MCF7 cells assessed as early apoptotic cells at 8.27 uM after 24 hrs by Annexin-V-FITC/propidium iodide staining based flow cytometry (reference value: 2.3 %). It is filed as functional.
The test system of test [16] is MCF7. In words: Induction of ROS accumulation in human MCF7 cells at 8.27 uM after 12 hrs by CM-H2-DCFDA probe based flow cytometry (reference value: 5.1 %). It is filed as functional.
In test [17] the test system is MCF7. The test is described as follows: Induction of apoptosis in human MCF7 cells assessed as necrotic cells at 8.27 uM after 48 hrs by Annexin-V-FITC/propidium iodide staining based flow cytometry (reference value: 0.4 %). It is filed as functional.
Test [18] concerns MCF7. The test is described as follows: Cell cycle arrest in human MCF7 cells assessed as accumulation at G0/G1 phase at 8.27 uM after 48 hrs by propidium iodide staining based flow cytometry (reference value: 59.7 %). It is filed as functional.
Test [19] has as its system MCF7. The test is described as follows: Cell cycle arrest in human MCF7 cells assessed as accumulation at S phase at 11.33 uM after 48 hrs by propidium iodide staining based flow cytometry (reference value: 20.6 %). It is filed as functional.
Test [20] relates to MCF7. The test is described as follows: Cell cycle arrest in human MCF7 cells assessed as accumulation at G0/G1 phase at 11.33 uM after 48 hrs by propidium iodide staining based flow cytometry (reference value: 59.7 %). The test is classed as functional.
Test [21] deals with MCF7. In words: Induction of mitochondrial membrane depolarization in human MCF7 cells at 11.33 uM after 48 hrs by JC-1 staining based FACS assay (reference value: 9.9 %). It is filed as functional.
Test [22] has as its system MCF7. The test is described as follows: Induction of ROS accumulation in human MCF7 cells at 11.33 uM after 24 hrs by CM-H2-DCFDA probe based flow cytometry (reference value: 12.6 %). The test is classed as functional.
Test [23] has as its system MCF7. The test is described as follows: Induction of apoptosis in human MCF7 cells assessed as PARP-1 cleavage at 11.33 uM after 48 hrs by Western blot analysis. The test is classed as functional, cell-based.
Test [24] relates to MCF7. In words: Induction of apoptosis in human MCF7 cells assessed as viable cells at 11.33 uM after 48 hrs by Annexin-V-FITC/propidium iodide staining based flow cytometry (reference value: 99.2 %). The test is classed as functional. The following applies: MCF7, 48 h, read-out: Activity.
Test [25] has as its system MCF7. The test is described as follows: Induction of apoptosis in human MCF7 cells assessed as cell detachment at 11.33 uM after 24 hrs by inverted phase contrast microscopy. It is filed as functional, cell-based.
Test [26] has as its system MCF7. The test is described as follows: Induction of apoptosis in human MCF7 cells assessed as caspase 7 cleavage at 11.33 uM after 48 hrs by Western blot analysis. The test is classed as functional, cell-based.
Test [27] deals with MCF7. In words: Induction of apoptosis in human MCF7 cells assessed as caspase 9 cleavage at 11.33 uM after 48 hrs by Western blot analysis. It is filed as functional, cell-based.
For test [28], the system named is MCF7. In words: Cell cycle arrest in human MCF7 cells assessed as accumulation at S phase at 11.33 uM after 24 hrs by propidium iodide staining based flow cytometry (reference value: 24.5 %). The test is classed as functional.
The test system of test [29] is MCF7. In words: Induction of apoptosis in human MCF7 cells assessed as necrotic cells at 11.33 uM after 24 hrs by Annexin-V-FITC/propidium iodide staining based flow cytometry (reference value: 1.7 %). It is filed as functional.
The subject of test [30] is MCF7. In words: Induction of apoptosis in human MCF7 cells assessed as late apoptotic cells at 11.33 uM after 24 hrs by Annexin-V-FITC/propidium iodide staining based flow cytometry (reference value: 0.1 %). It is filed as functional.
Test [31] relates to MCF7. The test is described as follows: Induction of mitochondrial membrane depolarization in human MCF7 cells assessed as ratio of red to green fluorescence at 11.33 uM after 48 hrs by JC-1 staining based FACS assay (reference value: 9.1). It is filed as functional.
Test [32] has as its system MCF7. In words: Induction of mitochondrial membrane depolarization in human MCF7 cells assessed as ratio of red to green fluorescence at 11.33 uM after 24 hrs by JC-1 staining based FACS assay (reference value: 9.1). It is filed as functional.
For test [33], the system named is MCF7. In words: Induction of apoptosis in human MCF7 cells assessed as necrotic cells at 11.33 uM after 48 hrs by Annexin-V-FITC/propidium iodide staining based flow cytometry (reference value: 0.4 %). The test is classed as functional.
The subject of test [34] is MCF7. In words: Induction of apoptosis in human MCF7 cells assessed as rounded cells at 11.33 uM after 24 hrs by inverted phase contrast microscopy. It is filed as functional, cell-based.
For test [35], the system named is MCF7. The test is described as follows: Cell cycle arrest in human MCF7 cells assessed as accumulation at G2/M phase at 11.33 uM after 48 hrs by propidium iodide staining based flow cytometry (reference value: 19.8 %). It is filed as functional.
Test [36] concerns MCF7. In words: Induction of apoptosis in human MCF7 cells assessed as late apoptotic cells at 11.33 uM after 48 hrs by Annexin-V-FITC/propidium iodide staining based flow cytometry relative to control. The test is classed as functional.

Take `C[C@@H]1CC[C@@]2(OC1)O[C@H]1C[C@H]3[C@@H]4CC[C@H]5C[C@@H](O[C@@H]6O[C@H](CO)[C@H](O[C@@H]7O[C@H](CO)[C@@H](O)[C@H](O[C@@H]8OC[C@@H](O)[C@H](O)[C@H]8O)[C@H]7O[C@@H]7O[C@H](CO)[C@@H](O)[C@H](O)[C@H]7O)[C@H](O)[C@H]6O)CC[C@]5(C)[C@H]4CC[C@]3(C)[C@H]1[C@@H]2C` [DEGALACTOTIGONIN]: the Ratio in the test on MCF7 [1] stood at 0.437. Moreover, the Activity is 43.8% in the test on MCF7 [2]; 0.6% in the test with MCF7 [3]; 69.6% with MCF7 [4]; “tde” with MCF7 [8]; 99.9% with MCF7 [9]; 98.7% in the test on MCF7 [10]. In addition, the Activity stood at 9% in the test on MCF7 [11]; 3% with MCF7 [12]; 22.5% in the test on MCF7 [13]; 5.5% in the test on MCF7 [15]; 50.5% in the test with MCF7 [16]; 0% in the test with MCF7 [17]. Moreover, the Activity in the test with MCF7 [18] worked out at 36.3%. The outcome in the test on MCF7 [5], with MCF7 [7] and with MCF7 [14] was Active. The viability at 8.27 µM in the test with MCF7 [6] was 91%.
For `CC1(C)CC[C@]2(C(=O)O)CC[C@]3(C)C(=CC[C@@H]4[C@@]5(C)CC[C@H](O[C@@H]6O[C@H](C(=O)O)[C@@H](O)[C@H](O)[C@H]6O)C(C)(C)[C@@H]5CC[C@]43C)[C@@H]2C1`, the Activity with MCF7 [19] was found to be 47.1%; in the test with MCF7 [20], 35.1%; in the test with MCF7 [21] it was 54.9%; with MCF7 [22] it was 99.9%; in the test on MCF7 [28], 29.7%; in the test on MCF7 [29], 0.7%. The Activity in the test on MCF7 [30] came out at 0.2%; in the test on MCF7 [33], 0.8%; in the test on MCF7 [35] it was 17%; with MCF7 [36] it was 1.3%. Also, the outcome with MCF7 [23], with MCF7 [25], in the test with MCF7 [26], with MCF7 [27] and in the test with MCF7 [34] was Active. The viability at 11.33 µM with MCF7 [24] came out at 52%. The values for the Ratio with MCF7 [31] and in the test with MCF7 [32] were 0.821 and 6.14, respectively.
